Data taken from patent publication EP0745595A1, “3-(3-Aryloxyphenyl)-1-(substituted methyl)-s-triazine-2,4,6-oxo or thiotrione herbicidal agents” (American Cyanamid Company, priority 1995, dated 1996).

How the values were obtained:
Assay type in all cases: in vivo
CHENOPODIUM ALBUM, L. [1] = experiment: Preemergence herbicidal evaluation, CHEAL (Lambsquarters, Common); conditions: rated four to five weeks after treatment
In short: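 Seeds mixed with potting soil were planted on about one inch of soil in cups, then sprayed with aqueous acetone solution of test compound at about 0.125 to 0.50 kg per hectare. Plants grown under greenhouse conditions; visual rating on a 0-9 scale versus untreated control at 4-5 weeks.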

SAGITTARIA PYGMAEA, L. = experiment: Preemergence weed control under flooded paddy conditions, SAGPY (Arrowhead (Pygmaea)); conditions: preemergence, 3-4 weeks after treatment
In short: (§1)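 Seeds or propagules sown in top 0.5 cm of silt loam in undrained containers, flooded 1.5 to 3 cm throughout. Compounds in aqueous/acetone 50/50 v/v pipetted into flood water at about 0.5, 0.25, 0.125 and 0.063 kg/ha. Visual 0-9 rating versus control after three to four weeks in greenhouse.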

[2] = system: CYPERUS SEROTINUS, ROTTB.; experiment: Preemergence weed control under flooded paddy conditions, CYPSE (Flatsedge); conditions: preemergence, 3-4 weeks after treatment
In short: as §1

[3] = system: ORYZA SATIVA, L. TEBONNET; experiment: Rice tolerance to post-transplant applications under flooded paddy conditions, ORYSAT (Rice, Tebonnet); conditions: post-transplant rice, 3-4 weeks after treatment
In short: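 Two ten-day-old Tebonnet rice seedlings were transplanted into silt loam and kept flooded 1.5 to 3 cm deep. Three days after transplanting, the flood surface received the compound in aqueous/acetone 50/50 v/v at about 0.5, 0.25, 0.125 or 0.063 kg/ha. Injury was rated visually on a 0-9 scale versus control after 3-4 weeks.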

[4] = system: ORYZA SATIVA, L. TEBONNET; experiment: Preemergence herbicidal evaluation, ORYSAT (Rice, Tebonnet); conditions: rated four to five weeks after treatment
Description: Results of herbicide evaluation are expressed on a rating scale (0-9). The scale is based upon a visual observation of plant stand, vigor, malformation, size, chlorosis and overall plant appearance as compared with a control.
The preemergence herbicidal activity of the test compounds of the present invention is exemplified by the following tests in which the seeds of a variety of monocotyledonous and dicotyledonous plants are separately mixed with potting soil and planted on top of approximately one inch of soil in separate pint cups. […] The treated cups are then placed on greenhouse benches, watered and cared for in accordance with conventional greenhouse procedures. From four to five weeks after treatment, the tests are terminated and each cup is examined and rated according to the rating system provided in Example 40.
The compounds evaluated are reported by compound number given in Example 40.

[…], PRESL. = Preemergence weed control under flooded paddy conditions, MOOVA (Monochoria); conditions: preemergence, 3-4 weeks after treatment
In short: as §1

CHENOPODIUM ALBUM, L. [5] = experiment: Postemergence herbicidal evaluation, CHEAL (Lambsquarters, Common)
In short: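 Seedlings of common lambsquarters (Chenopodium album) were raised in jiffy flats for roughly two weeks, then sprayed postemergence through a nozzle at 40 psi with test compound dispersed in 50/50 acetone/water containing 0.5% TWEEN®20 surfactant. Plants were kept on greenhouse benches under standard care and rated visually on a 0-9 scale versus controls.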

COC(=O)Cn1c(=O)n(C)c(=O)n(-c2cc(Oc3cc(Cl)c(Cl)cc3Cl)ccc2[N+](=O)[O-])c1=O [Compound 31, Methyl tetrahydro-3-methyl-5-[2-nitro-5-(2,4,5-trichlorophenoxy)phenyl]-2,4,6-trioxo-s-triazine-1(2H)-acetate]
CHEAL herbicidal rating (CHENOPODIUM ALBUM, L. [1]; Rate 0.125 kg/ha): 9.0 | CHEAL herbicidal rating (CHENOPODIUM ALBUM, L. [1]; Rate 0.250 kg/ha): 9.0 | CHEAL herbicidal rating (CHENOPODIUM ALBUM, L. [1]; Rate 0.500 kg/ha): 9.0 | Herbicidal effect rating, SAGPY (SAGITTARIA PYGMAEA, L.; 0.063 kg/ha): 0.0 | Herbicidal effect rating, SAGPY (SAGITTARIA PYGMAEA, L.; 0.125 kg/ha): 0.0 | Herbicidal effect rating, SAGPY (SAGITTARIA PYGMAEA, L.; 0.250 kg/ha): 0.0 | Herbicidal effect rating, SAGPY (SAGITTARIA PYGMAEA, L.; 0.500 kg/ha): 0.0 | Herbicidal effect rating, CYPSE ([2]; 0.063 kg/ha): 0.0 | Herbicidal effect rating, CYPSE ([2]; 0.125 kg/ha): 0.0 | Herbicidal effect rating, CYPSE ([2]; 0.250 kg/ha): 0.0 | Herbicidal effect rating, CYPSE ([2]; 0.500 kg/ha): 0.0 | Herbicidal effect rating, ORYSAT ([3]; 0.063 kg/ha): 0.0 | Herbicidal effect rating, ORYSAT ([3]; 0.125 kg/ha): 0.0 | Herbicidal effect rating, ORYSAT ([3]; 0.250 kg/ha): 1.0 | Herbicidal effect rating, ORYSAT ([3]; 0.500 kg/ha): 2.0 | ORYSAT herbicidal rating ([4]; Rate 0.125 kg/ha): 3.0 | ORYSAT herbicidal rating ([4]; Rate 0.250 kg/ha): 3.0 | ORYSAT herbicidal rating ([4]; Rate 0.500 kg/ha): 3.0 | Herbicidal effect rating, MOOVA ([…], PRESL.; 0.063 kg/ha): 0.0 | Herbicidal effect rating, MOOVA ([…], PRESL.; 0.125 kg/ha): 0.0 | CHEAL rating (CHENOPODIUM ALBUM, L. [5]; Rate 0.125 kg/ha): 7.0 | CHEAL rating (CHENOPODIUM ALBUM, L. [5]; Rate 0.250 kg/ha): 7.0 | CHEAL rating (CHENOPODIUM ALBUM, L. [5]; Rate 0.500 kg/ha): 7.0
